Key:
Type in all cases: in vivo
[1] = tested on: Alopecurus myosuroides (ALOMY); test: Herbicidal glasshouse test, post-emergence; settings: POST Application, evaluated after 13 days; for pest or weed control at 250 g/ha: Alopecurus myosuroides, post-emergence, 312 h, read-out: damage to plant (100=total damage to plant; 0=no damage to plant); for damage to plant (100=total damage to plant; 0=no damage to plant): 250 g/ha
Experimental: (§1) Seeds of a variety of test species were sown in standard soil in pots (Alopecurus myosuroides (ALOMY), Setaria faberi (SETFA), Echinochloa crus-galli (ECHCG), Abuthilon theophrasti (ABUTH) and Amaranthus retoflexus (AMARE)). After cultivation for one day (pre-emergence) or after 8 days cultivation (post-emergence) under controlled conditions in a glasshouse (at 24/16° C., day/night; 14 hours light; 65% humidity), the plants were sprayed with an aqueous spray solution derived from the formulation of the technical active ingredient in acetone/water (50:50) solution containing 0.5% Tween 20 (polyoxyethelyene sorbitan monolaurate, CAS RN 9005-64-5). Compounds were applied at 250 g/ha. The test plants were then grown in a glasshouse under controlled conditions in a glasshouse (at 24/16° C., day/night; 14 hours light; 65% humidity) and watered twice daily. After 13 days for pre and post-emergence, the test was evaluated (100=total damage to plant; 0=no damage to plant).

Setaria faberi (SETFA) [2] = test: Herbicidal glasshouse test, post-emergence; settings: POST Application, evaluated after 13 days; for pest or weed control at 250 g/ha: Setaria faberi, post-emergence, 312 h, read-out: damage to plant (100=total damage to plant; 0=no damage to plant); for damage to plant (100=total damage to plant; 0=no damage to plant): 250 g/ha
Experimental: as §1

[3] = tested on: Echinochloa crus-galli (ECHCG); test: Herbicidal glasshouse test, post-emergence; settings: POST Application, evaluated after 13 days; for pest or weed control at 250 g/ha: Echinochloa crus-galli, post-emergence, 312 h, read-out: damage to plant (100=total damage to plant; 0=no damage to plant); for damage to plant (100=total damage to plant; 0=no damage to plant): 250 g/ha
Experimental: as §1

[4] = tested on: Abuthilon theophrasti (ABUTH); test: Herbicidal glasshouse test, post-emergence; settings: POST Application, evaluated after 13 days; for pest or weed control at 250 g/ha: Abutilon theophrasti, post-emergence, 312 h, read-out: damage to plant (100=total damage to plant; 0=no damage to plant); for damage to plant (100=total damage to plant; 0=no damage to plant): 250 g/ha
Experimental: as §1

[5] = tested on: Amaranthus retoflexus (AMARE); test: Herbicidal glasshouse test, post-emergence; settings: POST Application, evaluated after 13 days; for pest or weed control at 250 g/ha: Amaranthus retroflexus, post-emergence, 312 h, read-out: damage to plant (100=total damage to plant; 0=no damage to plant); for damage to plant (100=total damage to plant; 0=no damage to plant): 250 g/ha
Experimental: as §1

[6] = tested on: Alopecurus myosuroides (ALOMY); test: Herbicidal glasshouse test, pre-emergence; settings: PRE Application, evaluated after 13 days; for pest or weed control at 250 g/ha: Alopecurus myosuroides, pre-emergence, 312 h, read-out: damage to plant (100=total damage to plant; 0=no damage to plant); for damage to plant (100=total damage to plant; 0=no damage to plant): 250 g/ha
Experimental: as §1

Setaria faberi (SETFA) [7] = test: Herbicidal glasshouse test, pre-emergence; settings: PRE Application, evaluated after 13 days; for pest or weed control at 250 g/ha: Setaria faberi, pre-emergence, 312 h, read-out: damage to plant (100=total damage to plant; 0=no damage to plant); for damage to plant (100=total damage to plant; 0=no damage to plant): 250 g/ha
Experimental: as §1

[8] = tested on: Echinochloa crus-galli (ECHCG); test: Herbicidal glasshouse test, pre-emergence; settings: PRE Application, evaluated after 13 days; for pest or weed control at 250 g/ha: Echinochloa crus-galli, pre-emergence, 312 h, read-out: damage to plant (100=total damage to plant; 0=no damage to plant); for damage to plant (100=total damage to plant; 0=no damage to plant): 250 g/ha
Experimental: as §1

[9] = tested on: Abuthilon theophrasti (ABUTH); test: Herbicidal glasshouse test, pre-emergence; settings: PRE Application, evaluated after 13 days; for pest or weed control at 250 g/ha: Abutilon theophrasti, pre-emergence, 312 h, read-out: damage to plant (100=total damage to plant; 0=no damage to plant); for damage to plant (100=total damage to plant; 0=no damage to plant): 250 g/ha
Experimental: as §1

[10] = tested on: Amaranthus retoflexus (AMARE); test: Herbicidal glasshouse test, pre-emergence; settings: PRE Application, evaluated after 13 days; for pest or weed control at 250 g/ha: Amaranthus retroflexus, pre-emergence, 312 h, read-out: damage to plant (100=total damage to plant; 0=no damage to plant); for damage to plant (100=total damage to plant; 0=no damage to plant): 250 g/ha
Experimental: as §1

| SMILES | pest or weed control at 250 g/ha [1] | pest or weed control at 250 g/ha (Setaria faberi (SETFA) [2]) | pest or weed control at 250 g/ha [3] | pest or weed control at 250 g/ha [4] | pest or weed control at 250 g/ha [5] | pest or weed control at 250 g/ha [6] | pest or weed control at 250 g/ha (Setaria faberi (SETFA) [7]) | pest or weed control at 250 g/ha [8] | pest or weed control at 250 g/ha [9] | pest or weed control at 250 g/ha [10] | damage to plant (100=total damage to plant; 0=no damage to plant) [1] | damage to plant (100=total damage to plant; 0=no damage to plant) (Setaria faberi (SETFA) [2]) | damage to plant (100=total damage to plant; 0=no damage to plant) [3] | damage to plant (100=total damage to plant; 0=no damage to plant) [4] | damage to plant (100=total damage to plant; 0=no damage to plant) [5] | damage to plant (100=total damage to plant; 0=no damage to plant) [6] | damage to plant (100=total damage to plant; 0=no damage to plant) (Setaria faberi (SETFA) [7]) | damage to plant (100=total damage to plant; 0=no damage to plant) [8] | damage to plant (100=total damage to plant; 0=no damage to plant) [9] | damage to plant (100=total damage to plant; 0=no damage to plant) [10] |
| --- | --- | --- | --- | --- | --- | --- | --- | --- | --- | --- | --- | --- | --- | --- | --- | --- | --- | --- | --- | --- |
| CCCn1c(=O)c(C(=O)C2C(=O)CCCC2=O)cc2cc(F)cnc21 [Compound 1.50] | 70% | 80% | 80% | 80% | 70% | 80% | 100% | 100% | 90% | 90% | – | – | – | – | – | – | – | – | – | – |
| O=C1CCCC(=O)C1C(=O)c1cc2cc(F)cnc2n(CCC=C(F)F)c1=O [Compound 1.48] | – | – | – | – | – | – | – | – | – | – | 70 | 80 | 80 | 80 | 40 | 80 | 90 | 100 | 90 | 100 |
| COc1ccccc1-n1c(=O)c(C(=O)C2C(=O)CCCC2=O)cc2cc(F)cnc21 [Compound 4.33] | – | – | – | – | – | – | – | – | – | – | 100 | 90 | 90 | 80 | 80 | 100 | 100 | 100 | 100 | 100 |
| O=C1CCCC(=O)C1C(=O)c1cc2cc(F)cnc2n(-c2ccccc2Cl)c1=O [Compound 4.28] | – | – | – | – | – | – | – | – | – | – | 70 | 80 | 80 | 80 | 80 | 90 | 100 | 100 | 100 | 50 |
| O=C1CCCC(=O)C1C(=O)c1cc2cc(F)cnc2n(-c2ccccc2[N+](=O)[O-])c1=O [Compound 4.36] | 90% | 80% | 90% | 80% | 80% | 90% | 100% | 100% | 100% | 100% | – | – | – | – | – | – | – | – | – | – |
| Cn1c(=O)c(C(=O)C2C(=O)CCCC2=O)cc2ccc(Br)cc21 [Compound 3.42] | 20% | 70% | 80% | 90% | 80% | 10% | 0% | 70% | 50% | 80% | – | – | – | – | – | – | – | – | – | – |
| O=C1CCCC(=O)C1C(=O)c1cc2cc(F)cnc2n(-c2cccc(Cl)c2)c1=O [Compound 4.25] | – | – | – | – | – | – | – | – | – | – | 80 | 80 | 80 | 80 | 70 | 90 | 100 | 100 | 90 | 50 |
| CCn1c(=O)c(C(=O)C2C(=O)CCCC2=O)cc2cc(F)cnc21 [Compound 1.49] | 70% | 70% | 80% | 80% | 70% | 60% | 90% | 100% | 90% | 100% | – | – | – | – | – | – | – | – | – | – |
| COc1ccc(-n2c(=O)c(C(=O)C3C(=O)CCCC3=O)cc3cc(F)cnc32)cn1 [Compound 4.20] | – | – | – | – | – | – | – | – | – | – | 80 | 80 | 80 | 80 | 60 | 90 | 70 | 100 | 100 | 100 |
| COCCn1c(=O)c(C(=O)C2C(=O)CCCC2=O)cc2cc(F)cnc21 [Compound 1.44] | 80% | 80% | 80% | 90% | 80% | 90% | 100% | 100% | 90% | 100% | – | – | – | – | – | – | – | – | – | – |
| O=C1CCCC(=O)C1C(=O)c1cc2cc(F)cnc2n(-c2cccc(C(F)(F)F)c2)c1=O [Compound 4.11] | – | – | – | – | – | – | – | – | – | – | 90 | 90 | 90 | 100 | 90 | 70 | 80 | 90 | 90 | 100 |

— patent US8450243B2, “Herbicidal quinoline and 1,8-naphthyridine compounds” (Syngenta Limited, priority 2009, dated 2013)
